Measurements from patent publication US10285966B2, “10-hydroxy-cis-12-octadecenoic acid alkyl ester and use thereof” (NITTO PHARMACEUTICAL INDUSTRIES, LTD., priority 2015, dated 2019).

Assay: State (liquid or solid) at ambient temperature by visual observation
Type: physicochemical
Conditions: for State at standard temperature: Table 1; for liquid or solid at ambient temperature: ambient temperature (about 15-25° C.), visual observation
Procedure: The compounds (1)-(3) of the present invention are desirably liquid at ambient temperature. In the present specification, the ambient temperature refers to the ambient temperature (15° C.-25° C.) defined in the Japanese Pharmacopoeia, 16th edition, General Rules, the Japanese Pharmacopoeia, 17th edition, General Rules. In addition, “about” here means ±1° C.
Whether the compounds of Examples 1 and 2 and HYA of Comparative Example are liquid or solid at ambient temperature (about 15-25° C.) was confirmed by visual observation.

State at standard temperature | liquid or solid at ambient temperature | SMILES
liquid | liquid | CCCCC/C=C\CC(O)CCCCCCCCC(=O)OCC (stereo not drawn) [Example 1, ethyl 10-hydroxy-cis-12-octadecenoate]
– | liquid | CCCCC/C=C\CC(O)CCCCCCCCC(=O)OCCC (stereo not drawn) [Example 2, propyl 10-hydroxy-cis-12-octadecenoate]
solid | solid | CCCCC/C=C\CC(O)CCCCCCCCC(=O)O (stereo not drawn) [HYA, 10-hydroxy-cis-12-octadecenoic acid]
